Laboratory results as given in patent US5783575A, “Antagonists, their preparation and use” (Novo Nordisk A/S, priority 1994, dated 1998).
pIC50: −log10 of the molar value. Like-named read-outs stand apart in the source and are kept apart here. One block for each molecule: values may come before it.

Columns and labels:
mGluR1α = conditions: 1 mM, BHK cells expressing mGluR1α; cited from earlier work
mGluR1a [1] = target: T1, mGluR1a (Rattus norvegicus, UniProt P23385); test: Inhibition of PI-hydrolysis in BHK 570 cells expressing mGluR1a receptors (antagonist activity vs 10 μM glutamate); format: cell-based
T1 construct: expressed in transfected cells; host or cells: BHK 570 (baby hamster kidney) cells
T1 sequence (P23385 19-1199): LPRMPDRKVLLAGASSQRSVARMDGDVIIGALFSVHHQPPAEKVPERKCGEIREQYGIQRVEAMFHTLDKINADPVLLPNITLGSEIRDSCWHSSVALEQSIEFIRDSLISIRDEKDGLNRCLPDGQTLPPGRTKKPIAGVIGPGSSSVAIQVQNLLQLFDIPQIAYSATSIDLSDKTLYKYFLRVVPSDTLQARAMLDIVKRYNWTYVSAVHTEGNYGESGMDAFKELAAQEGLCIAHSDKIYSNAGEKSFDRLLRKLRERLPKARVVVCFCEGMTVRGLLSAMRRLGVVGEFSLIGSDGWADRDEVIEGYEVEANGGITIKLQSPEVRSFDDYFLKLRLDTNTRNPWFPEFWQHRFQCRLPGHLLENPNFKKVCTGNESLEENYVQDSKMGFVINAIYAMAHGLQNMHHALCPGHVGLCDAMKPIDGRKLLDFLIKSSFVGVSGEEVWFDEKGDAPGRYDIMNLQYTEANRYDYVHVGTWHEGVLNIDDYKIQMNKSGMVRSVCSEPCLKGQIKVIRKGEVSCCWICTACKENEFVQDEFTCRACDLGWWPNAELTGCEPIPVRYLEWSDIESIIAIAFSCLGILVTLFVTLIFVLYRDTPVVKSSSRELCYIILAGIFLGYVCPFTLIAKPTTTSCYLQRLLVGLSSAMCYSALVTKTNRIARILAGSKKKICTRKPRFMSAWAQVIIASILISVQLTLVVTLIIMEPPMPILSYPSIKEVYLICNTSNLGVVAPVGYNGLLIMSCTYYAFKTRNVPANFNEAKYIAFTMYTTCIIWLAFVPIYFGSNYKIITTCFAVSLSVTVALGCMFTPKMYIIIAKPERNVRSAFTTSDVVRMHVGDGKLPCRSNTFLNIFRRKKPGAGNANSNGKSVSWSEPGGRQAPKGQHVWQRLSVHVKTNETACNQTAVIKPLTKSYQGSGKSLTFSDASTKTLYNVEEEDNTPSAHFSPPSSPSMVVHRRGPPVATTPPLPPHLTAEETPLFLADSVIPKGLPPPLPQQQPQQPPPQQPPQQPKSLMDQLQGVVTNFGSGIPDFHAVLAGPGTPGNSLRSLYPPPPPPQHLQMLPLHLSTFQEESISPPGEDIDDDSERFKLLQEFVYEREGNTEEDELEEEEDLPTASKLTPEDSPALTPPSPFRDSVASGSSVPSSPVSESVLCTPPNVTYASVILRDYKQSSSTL

mGluR1a [2] = target: T1, mGluR1a; test: Testing for non competitiveness: mGluR1a-mediated PI-hydrolysis, glutamate dose-response with and without antagonist; format: cell-based; conditions: for effect on maximal response for glutamate / effect on the potency of glutamate / pharmacological profile: BHK cells expressing mGluR1a; for Emax: basal subtracted
mGluR1a [3] = target: T1, mGluR1a; test: [3H]Glutamate binding to mGluR1a; conditions: BHK cells expressing mGluR1a
Method: Membranes prepared from BHK cells expressing mGluR1a were prepared as described (Thomsen, C. et al. (1993), Brain Res. 619, 22-28). […] IC50 values were calculated by a non-linear regression analysis using the GraphPad-Prism program (I.S.I., Philadelphia). Inhibitory constants (Ki) were calculated from the IC50 values using the equation: […]

Bz = test: Affinity for Bz receptor (Table 3); format: binding
AMPA = test: Affinity for AMPA receptor (Table 3); format: binding
KAIN = test: Affinity for KAIN receptor (Table 3); format: binding
CPP = test: Affinity for CPP receptor (Table 3); format: binding
TCP = test: Affinity for TCP receptor (Table 3); format: binding
CNQX = test: Affinity for CNQX receptor (Table 3); format: binding
NMDA-induced responses = conditions: a number of preparations; cited from earlier work
[4] = system: responses evoked by the ionotropic glutamate receptor agonist, AMPA; conditions: Mori-Okamoto et al. 1993; cited from earlier work
GABAA = conditions: neurones, nucleus of the Solitary tract; cited from earlier work
currents evoked by AMPA = conditions: neurones, nucleus of the Solitary tract; cited from earlier work
[5] = system: metabotropic glutamate receptor at the subtypes mGluR1 and mGluR5; conditions: Thomsen and Suzdak 1993; cited from earlier work
[6] = system: release of dopamine in the rat brain; conditions: Sacaan et al. 1992; cited from earlier work
MCAO model in mice = conditions: Chiamulera et al. 1992; cited from earlier work
nerve cell cultures = conditions: Koh et al. 1991; cited from earlier work
control BHK cells = conditions: 1 mM; cited from earlier work
[7] = system: metabotropic glutamate receptor; conditions: cited from earlier work
mGluR1a [8] = target: T1, mGluR1a; conditions: BHK cells expressing mGluR1a, Thomsen and Suzdak 1993; cited from earlier work
mGluR1a [9] = target: T1, mGluR1a; conditions: competitive antagonist, Thomsen and Suzdak 1993; cited from earlier work
mGluR1/mGluR5 = conditions: Mori-Okamoto et al. 1993; cited from earlier work
[10] = read-out: response to glutamate relative to the maximal response evoked by 300 μM glutamate, antagonist 10 μM, glutamate 0
[11] = read-out: response to glutamate relative to the maximal response evoked by 300 μM glutamate, antagonist 10 μM, glutamate 3
[12] = read-out: response to glutamate relative to the maximal response evoked by 300 μM glutamate, antagonist 10 μM, glutamate 10
[13] = read-out: response to glutamate relative to the maximal response evoked by 300 μM glutamate, antagonist 10 μM, glutamate 30
[14] = read-out: response to glutamate relative to the maximal response evoked by 300 μM glutamate, antagonist 10 μM, glutamate 100
[15] = read-out: response to glutamate relative to the maximal response evoked by 300 μM glutamate, antagonist 10 μM, glutamate 300

Structure (SMILES): N[C@@H](CCC(=O)O)C(=O)O [glutamate, L-glutamate]
- increase over basal PI-hydrolysis (mGluR1α): 6-8 fold

- pIC50 (mGluR1a [1]): 4.44
Structure (SMILES): CN1CCN(C(=O)c2cc3c4ccccc4n(C)c3s2)CC1 [Compound 31, 8-Methyl-2-(4-methyl-1-piperazinylcarbonyl)thieno[2,3-b]indole]

- pIC50 (mGluR1a [1]): 5.28
Structure (SMILES): Cn1c2ccccc2c2cc(C(=O)N3CCOCC3)sc21 [Compound 27, 8-Methyl-2-morpholinocarbonylthieno[2,3-b]indole]

- pIC50 (mGluR1a [1]): 5.00
- effect on the potency of glutamate (mGluR1a [2]): did not affect the potency of glutamate
- pharmacological profile (mGluR1a [2]): non-competitive antagonists
- Emax (mGluR1a [2]; [10]): 2%
- Emax (mGluR1a [2]; [11]): 5%
- Emax (mGluR1a [2]; [12]): 16%
- Emax (mGluR1a [2]; [13]): 53%
- Emax (mGluR1a [2]; [14]): 75%
- Emax (mGluR1a [2]; [15]): 77%
- displacement of [3H]glutamate binding (mGluR1a [3]): did not displace
Structure (SMILES): O=C(O)c1cc2c3ccccc3n(Cc3ccccc3)c2nc1N1CCOCC1 [Compound 3b, 9-Benzyl-2-morpholinopyridino[2,3-b]indole-3-carboxylic acid]
- effect on maximal response for glutamate (mGluR1a [2]): dose-dependently decreased the maximal response for glutamate

- pIC50 (mGluR1a [1]): 4.68
- receptor selectivity for mGluR1a (mGluR1a [1]; based on Table 3, criterion 5-fold more potent at mGluR1a): considered selective for mGluR1a
- effect on the potency of glutamate (mGluR1a [2]): did not affect the potency of glutamate
- pharmacological profile (mGluR1a [2]): non-competitive antagonists
- Emax (mGluR1a [2]; [10]): 2%
- Emax (mGluR1a [2]; [11]): 5%
- Emax (mGluR1a [2]; [12]): 35%
- Emax (mGluR1a [2]; [13]): 65%
- Emax (mGluR1a [2]; [14]): 92%
- Emax (mGluR1a [2]; [15]): 89%
- Emax (mGluR1a [2]; read-out: response to glutamate relative to the maximal response evoked by 300 μM glutamate, antagonist 30 μM, glutamate 0): 2%
- Emax (mGluR1a [2]; read-out: response to glutamate relative to the maximal response evoked by 300 μM glutamate, antagonist 30 μM, glutamate 3): 4%
- Emax (mGluR1a [2]; read-out: response to glutamate relative to the maximal response evoked by 300 μM glutamate, antagonist 30 μM, glutamate 10): 22%
- Emax (mGluR1a [2]; read-out: response to glutamate relative to the maximal response evoked by 300 μM glutamate, antagonist 30 μM, glutamate 30): 58%
- Emax (mGluR1a [2]; read-out: response to glutamate relative to the maximal response evoked by 300 μM glutamate, antagonist 30 μM, glutamate 100): 64%
- Emax (mGluR1a [2]; read-out: response to glutamate relative to the maximal response evoked by 300 μM glutamate, antagonist 30 μM, glutamate 300): 66%
- Emax (mGluR1a [2]; read-out: response to glutamate relative to the maximal response evoked by 300 μM glutamate, antagonist 100 μM, glutamate 0): 5%
- Emax (mGluR1a [2]; read-out: response to glutamate relative to the maximal response evoked by 300 μM glutamate, antagonist 100 μM, glutamate 3): 2%
- Emax (mGluR1a [2]; read-out: response to glutamate relative to the maximal response evoked by 300 μM glutamate, antagonist 100 μM, glutamate 10): 1%
- Emax (mGluR1a [2]; read-out: response to glutamate relative to the maximal response evoked by 300 μM glutamate, antagonist 100 μM, glutamate 30): 24%
- Emax (mGluR1a [2]; read-out: response to glutamate relative to the maximal response evoked by 300 μM glutamate, antagonist 100 μM, glutamate 100): 34%
- Emax (mGluR1a [2]; read-out: response to glutamate relative to the maximal response evoked by 300 μM glutamate, antagonist 100 μM, glutamate 300): 38%
- displacement of [3H]glutamate binding (mGluR1a [3]): did not displace
- pIC50 (Bz): 3.33
- pIC50 (AMPA): < 3.01
- pIC50 (KAIN): 3.06
- pIC50 (CPP): 3.52
- pIC50 (TCP): < 3.01
- pIC50 (CNQX): < 3.01
Structure (SMILES): O=C(O)c1cc2c3ccccc3n(Cc3ccccc3)c2s1 [Compound 8, 8-Benzylthieno[2,3-b]indole-2-carboxylic acid]
- effect on maximal response for glutamate (mGluR1a [2]): dose-dependently decreased the maximal response for glutamate

- pIC50 (mGluR1a [1]): 5.14
Structure (SMILES): Cn1c2ccc(Cl)cc2c2cc(C(=O)O)sc21 [Compound 54, 5-Chloro-8-methylthieno[2,3-b]indole-2-carboxylic acid]

Structure (SMILES): N[C@@]1(C(=O)O)CC[C@@H](C(=O)O)C1 (relative stereo) [(±)-trans-ACPD]
- effect on NMDA-induced responses (NMDA-induced responses): enhanced

Structure (SMILES): N[C@@]1(C(=O)O)CC[C@@H](C(=O)O)C1 [(1S,3R)-ACPD]
- effect on responses evoked by AMPA [4]: suppress responses evoked by the ionotropic glutamate receptor agonist, AMPA
- effect on GABAA-mediated currents (GABAA): attenuated
- effect on currents evoked by AMPA (currents evoked by AMPA): potentiated

Structure (SMILES): N[C@H](C(=O)O)c1ccc(C(=O)O)c(O)c1 [Compound S-4C3HPG, S-4-carboxy-3-hydroxyphenyl glycine]
- antagonism of trans ACPD stimulated phosphoinositide hydrolysis [5]: antagonise trans ACPD stimulated phosphoinositide hydrolysis

Structure (SMILES): N[C@@]1(C(=O)O)CC[C@@H](C(=O)O)C1 [trans-ACPD, trans 1S,3R-1-aminocyclopentane-1,3-dicarboxylicacid]
- effect on release of dopamine [6]: increase release of dopamine
- neuroprotection (MCAO model in mice): neuroprotective
- inhibition of NMDA induced neurotoxicity (nerve cell cultures): inhibit NMDA induced neurotoxicity

Structure (SMILES): N[C@H](C(=O)O)c1ccc(C(=O)O)cc1 [Compound S-4CPG, S-4-carboxyphenyl glycine]
- antagonism of trans ACPD stimulated phosphoinositide hydrolysis [5]: antagonise trans ACPD stimulated phosphoinositide hydrolysis

Structure (SMILES): N[C@@H](Cn1oc(=O)[nH]c1=O)C(=O)O [quisqualate]
- stimulation of PI-hydrolysis (control BHK cells): no stimulation
- agonism on the metabotropic glutamate receptor [7]: non-selective agonists
- increase over basal PI-hydrolysis (mGluR1α): 6-8 fold

Structure (SMILES): NC(C(=O)O)c1ccc(C(=O)O)c(O)c1 (stereo not shown) [4-carboxy-3-hydroxyphenylglycine]
- effect on maximal response to glutamate (mGluR1a [8]): not affected
- effect on potency of glutamate to stimulate PI-hydrolysis (mGluR1a [8]): decreased
- displacement of [3H]glutamate binding (mGluR1a [9]): displaced [^3 H]glutamate binding from mGluR1a with an affinity which was similar to the functional antagonist potency

- pIC50 (mGluR1a [1]): 5.05
Structure (SMILES): c1ccc(Cn2c3ccccc3c3cc(-c4nnn[nH]4)sc32)cc1 [Compound 25, 8-Benzyl-2-(5-tetrazolyl)thieno[2,3-b]indole]

- pIC50 (mGluR1a [1]): 5.66
Structure (SMILES): CCOC(=O)C(C#N)=Cc1c(Cl)n(Cc2ccccc2)c2ccccc12 [Compound 1a, Ethyl 2-cyano-3-(1-benzyl-2-chloro-3-indolyl)acrylate]

Structure (SMILES): NC(C(=O)O)c1cc(O)no1 (stereo not shown) [ibotenate]
- agonism on the metabotropic glutamate receptor [7]: non-selective agonists

Structure (SMILES): C[C@@](N)(C(=O)O)c1ccc(C(=O)O)cc1 [S-MCPG, S-alpha-methyl-4-carboxyphenyl glycine]
- antagonism of trans ACPD stimulated phosphoinositide hydrolysis [5]: antagonise trans ACPD stimulated phosphoinositide hydrolysis

Structure (SMILES): N[C@@H](CP(=O)(O)O)C(=O)O [L-AP3, L-2-amino-3-phosphonopropionic acid]
- activity at metabotropic receptors [7]: partial agonist
- antagonism of mGluR1/mGluR5 (mGluR1/mGluR5): antagonist

Structure (SMILES): C=C(C)[C@H]1CN[C@H](C(=O)O)[C@H]1CC(=O)O [kainate]
- effect on metabotropic glutamate receptors ([7]; selective ionotropic glutamate receptor agonists): little effect
